Laboratory results published in ChEMBL document CHEMBL1136289, “Synthesis and biological evaluation of thymine nucleosides fused with 3',4'-tetrahydrofuran ring” (Bioorg Med Chem Lett, 2003).
Converted amounts (≈) assume the structure as drawn.

Test system: HeLa
Assay: Cytotoxicity against HeLa cells
Format: functional
Settings: Homo sapiens

Question: For `NC(=O)c1ncn([C@@H]2O[C@H](CO)[C@@H](O)[C@H]2O)n1` [RIBAVIRIN], which CC50 is on record?
Answer: 300 µg/mL (≈ 1230 µM)

Question: How did the CC50 turn out when `Cc1cn(C2OC3(CO)COCC3C2O)c(=O)[nH]c1=O` (stereo unspecified) was run?
Answer: 100 µg/mL (≈ 352 µM)

Question: `Cc1cn(C2CC3COCC3(CO)O2)c(=O)[nH]c1=O` (stereo unspecified) was tested. Which CC50 did it give?
Answer: 4.11 µg/mL (≈ 15.3 µM)

Test system: HeLa
Assay: Compound was evaluated for its inhibitory effect on the replication of Coxsackie virus B3 (Cox. B3) in HeLa cells
Format: functional, cell-based
Settings: Homo sapiens

Question: Which EC50 does the source give for `NC(=O)c1ncn([C@@H]2O[C@H](CO)[C@@H](O)[C@H]2O)n1` [RIBAVIRIN] here?
Answer: 181 µg/mL (≈ 743 µM)

Question: Which EC50 does the source give for `Cc1cn(C2OC3(CO)COCC3C2O)c(=O)[nH]c1=O` (stereo unspecified) here?
Answer: 100 µg/mL (≈ 352 µM)

Question: Which EC50 does the source give for `Cc1cn(C2CC3COCC3(CO)O2)c(=O)[nH]c1=O` (stereo unspecified) here?
Answer: > 4.11 µg/mL

Test system: HeLa
Assay: Compound was evaluated for its inhibitory effect on the replication of encephalomyocarditis virus (EMCV) in HeLa cells
Format: functional, cell-based
Settings: Homo sapiens

Question: `NC(=O)c1ncn([C@@H]2O[C@H](CO)[C@@H](O)[C@H]2O)n1` [RIBAVIRIN] was tested. Which EC50 did it give?
Answer: 20.9 µg/mL (≈ 85.7 µM)

Question: `Cc1cn(C2OC3(CO)COCC3C2O)c(=O)[nH]c1=O` (stereo unspecified) was tested. Which EC50 did it give?
Answer: 100 µg/mL (≈ 352 µM)

Question: How did the EC50 turn out when `Cc1cn(C2CC3COCC3(CO)O2)c(=O)[nH]c1=O` (stereo unspecified) was run?
Answer: > 4.11 µg/mL

Test system: HeLa
Assay: Compound was evaluated for its inhibitory effect on the replication of vesicular stomatitis virus (VSV) in HeLa cells
Format: functional, cell-based
Settings: Homo sapiens

Question: With `NC(=O)c1ncn([C@@H]2O[C@H](CO)[C@@H](O)[C@H]2O)n1` [RIBAVIRIN] as the compound, how does the EC50 read?
Answer: 14.4 µg/mL (≈ 59 µM)

Question: Which EC50 does the source give for `Cc1cn(C2OC3(CO)COCC3C2O)c(=O)[nH]c1=O` (stereo unspecified) here?
Answer: 100 µg/mL (≈ 352 µM)

Question: How did the EC50 turn out when `Cc1cn(C2CC3COCC3(CO)O2)c(=O)[nH]c1=O` (stereo unspecified) was run?
Answer: 3.45 µg/mL (≈ 12.9 µM)

Test system: MT4
Assay: Compound was evaluated for its inhibitory effect on the replication of HIV-1(IIIB) in MT-4 cells
Format: functional, cell-based
Settings: Homo sapiens

Question: How did the EC50 turn out when `Cc1cn([C@H]2C[C@H](N=[N+]=[N-])[C@@H](CO)O2)c(=O)[nH]c1=O` [ZIDOVUDINE] was run?
Answer: 0.0012 µg/mL (≈ 0.00449 µM)

Question: Which EC50 does the source give for `Cc1cn(C2OC3(CO)COCC3C2O)c(=O)[nH]c1=O` (stereo unspecified) here?
Answer: 95.8 µg/mL (≈ 337 µM)

Question: With `Cc1cn(C2CC3COCC3(CO)O2)c(=O)[nH]c1=O` (stereo unspecified) as the compound, how does the EC50 read?
Answer: > 100 µg/mL

Test system: MT4
Assay: Compound was evaluated for its inhibitory effect on the replication of HIV-2 (ROD) in MT-4 cells
Format: functional, cell-based
Settings: Homo sapiens

Question: `Cc1cn([C@H]2C[C@H](N=[N+]=[N-])[C@@H](CO)O2)c(=O)[nH]c1=O` [ZIDOVUDINE] was tested. Which EC50 did it give?
Answer: 0.01 µg/mL (≈ 0.0374 µM)

Question: `Cc1cn(C2OC3(CO)COCC3C2O)c(=O)[nH]c1=O` (stereo unspecified) was tested. Which EC50 did it give?
Answer: > 0.54 µg/mL

Question: For `Cc1cn(C2CC3COCC3(CO)O2)c(=O)[nH]c1=O` (stereo unspecified), which EC50 is on record?
Answer: > 100 µg/mL

Test system: MT4
Assay: Cytotoxicity against MT-4 cells
Format: functional
Settings: Homo sapiens

Question: How did the CC50 turn out when `Cc1cn([C@H]2C[C@H](N=[N+]=[N-])[C@@H](CO)O2)c(=O)[nH]c1=O` [ZIDOVUDINE] was run?
Answer: 1.64 µg/mL (≈ 6.14 µM)

Question: Which CC50 does the source give for `Cc1cn(C2OC3(CO)COCC3C2O)c(=O)[nH]c1=O` (stereo unspecified) here?
Answer: 0.54 µg/mL (≈ 1.9 µM)

Question: `Cc1cn(C2CC3COCC3(CO)O2)c(=O)[nH]c1=O` (stereo unspecified) was tested. Which CC50 did it give?
Answer: < 0.8 µg/mL
